“Also recorded” adds a separate entry of the source.
Columns and labels:
GR/PPAR [1] = experiment: Ligand dependent transcription assay, GR/PPAR chimeric receptor with MMTV-luciferase reporter in COS cells; assay type: cell-based, African green monkey
Procedure: (§1) Similar hybrid receptors GR/NER, GR/NUC and GR/PPAR, in identical expression plasmid backgrounds were prepared essentially as described for the construction of the GR/mPPAR and GR/NUC chimeric receptors in Schmidt et al., "Identification of a new member of the steroid hormone receptor superfamily that is activated by a peroxisome proliferator and fatty acids," Mol. Endocrinol., 6(10):1634-41, 1992, and in Boie et al., "Enantioselective activation of the peroxisome proliferator-activated receptor", J. Biol. Chem. 269(8):5530-4, 1993.
(§2) Briefly, the amino terminal portion of the mouse glucocorticoid receptor (mGR), that includes the DNA binding domain was fused to the putative ligand binding domains of the nuclear receptor NER, hNUC-I (Schmidt et al., 1992), mPPAR (Issenmann and Green, 1990) to form the respective chimeric receptors GR/NER, GR/NUC and GR/PPAR. The GR/NER chimeric receptor was constructed as described for the GR/NUC and GR/PPAR hybrid receptors (Schmidt et al., 1992; Boie et al). The cDNA sequences coding for amino acids Arg^155 and Glu^156 of the NER receptor were converted to the Xho I restriction site, that was later used for the ligation to the GR cDNA sequences that coded for the DNA binding domain. Thus, converting amino acid residues Arg^155 and Glu^156 of NER receptor to amino acid residues Ser^155 and His^156.
The ligand transcription assay mediated by GR/PPAR in COS cells was performed as described in Example 4. The cells were treated with TOFA and Cerulenin at 0.1, 1, 10 and 100 μM.

GR/PPAR [2] = experiment: as above; assay type: cell-based, African green monkey; settings: Table 1
GR/NUC = experiment: Ligand dependent transcription assay, GR/NUC chimeric receptor with MMTV-luciferase reporter; assay type: cell-based, human; settings: Table 1
Procedure: as §1, §2

GR/NER = experiment: Ligand dependent transcription assay, GR/NER chimeric receptor with MMTV-luciferase reporter in CV1 cells; assay type: cell-based, African green monkey; settings: for Fold of Stimulation GR/NER, Control: no dopamine
Procedure: (§3) Transient transfection of COS and CV1 cells was performed as described (Schmidt 1992). Cells were plated (1.5×10^5 in 1 mL) into 12 well dishes in phenol red-free medium supplemented with activated charcoal treated fetal calf serum. The next day 0.12 mL of DNA 10 μg/ml (5 μg receptor DNA and 5 μg reporter plasmid), as a calcium phosphate precipitate, was added to the cells. Ligands were added to the cells 30 minutes after transfection. The next day (18 hours), the cells were washed and fresh ligands added. Twenty-four hours later, cell extracts were prepared and assayed for luciferase enzyme activity using the luciferase assay system (Promega Madison, Wis.). Each transfection was performed in triplicate and the luciferase activity of each sample measured in duplicate using the AutoClinilumat (Berthold Nashua, New Hampshire).

[3] = tested on: SCH 23390 Induced Catalepsy; experiment: SCH 23390 (dopamine D1 antagonist) induced catalepsy, bar method; assay type: in vivo; settings: rats; carrier pretreatment, 24 h later SCH23390 0.5 mg/kg
Procedure: Rats were pretreated with 0.4 mg/kg TOFA or with carrier (S.C.). Twenty-four hours later, the rats were challenged with 0.5 mg/kg SCH23390, a Dopamine D1 antagonist, and the duration of catalepsy was monitored.
Catalepsy was determined by a modification of the Bar method (Undie and Friedman, 1988). A steel bar, 1.1 cm in diameter and 50 cm long, was suspended at a height of 10 cm above the working surface. Three sides of the bench around the bar were walled off with brown cardboard, and the linings on the bench surface were selected to be of the same color with the cardboard walls. The animal's hind limbs were freely placed on the bench, the tail laid out to the back, and the forelimbs placed over the bar. The length of time a rat stayed up on the bar was noted up to a preset cut-off point of 120 s. The time was counted off upon observing any of the following actions: (1) the animal came off, placing its two forepaws on the bench, (2) the animal climbed onto or over the bar with both hind limbs, (3) the animal initiated locomotion along or around the bar. Subsequently, time readings were translated into scores by awarding a score of 1 for each successfully completed 5 s on the bar. […]
Catalepsy scores were analyzed by computer in accordance with the statistical procedures outlined by Winer, B. J.: Statistical principles in experimental design. […]

[4] = tested on: Haloperidol Induced Catalepsy; experiment: Haloperidol (dopamine D2 antagonist) induced catalepsy, bar method; assay type: in vivo; settings: rats; TOFA 0.4 mg/kg S.C. 24 h before Haloperidol 0.1 mg/kg
promoter of SV40 = experiment: Luciferase expression from reporter gene under control of the SV40 promoter; assay type: cell-based
[5] = tested on: MMTV-luciferase reporter gene; experiment: Luciferase expression in cells transfected only with the MMTV-luciferase reporter gene; assay type: cell-based
Procedure: as §3

PC12 cells = experiment: Neurite differentiation of PC12 cells; assay type: cell-based; settings: TOFA alone, without NGF (data not shown)
Procedure: To further study the influence of TOFA on the nervous system, we tested the effect of TOFA on the differentiation of PC12 cells. PC12 cells were plated at a density of approximately 100-200/mm^2 on collagen coated plates or dishes in RPMI medium supplemented with 10% horse serum, 5% fetal calf serum, […] streptomycin, 50 U/mL penicillin in a water saturated atmosphere of 95% air and 5% CO2, at 37° C. overnight. […]
At different time points during the treatment, cells were photographed or fixed with 10% formalin. Morphology was examined after four days of treatment with TOFA or vehicle (DMSO). The number of cells bearing neurites and average length of neurites were determined with the aid of the Bioquant imaging system. […] However, as depicted in Table 6 below, NGF alone induced a 15% increase in the number of cells bearing neurites and these outgrowths reached a mean length of 20 μm . Treatment with NGF and TOFA increased the percentage of cells bearing neurites to 78%. Maximal neurite generation is observed at a concentration of 10 μM TOFA.
[…] At least eighty cells from eight wells were analyzed in each group. The results are shown as the mean±SEM. ^a p<0.01, versus vehicle by Dunnetts test.

`C/C=C/C/C=C/CCC(=O)[C@H]1O[C@H]1C(N)=O` [Cerulenin] was tested, and the “Fold of Stimulation GR/PPAR” value (GR/PPAR [1]; 0.1 μM, Table 2, 1440 min) was 1.03 ± 0.12 fold, the “Fold of Stimulation GR/PPAR” value (GR/PPAR [1]; 1.0 μM, Table 2) was 1.13 ± 0.05 fold and the “Fold of Stimulation GR/PPAR” value (GR/PPAR [1]; 10.0 μM, Table 2, 1440 min) was 0.58 ± 0.11 fold.

For `CCCCCCCC/C=C\CCCCCCCC(=O)O` [Oleic Acid, oleic acid], the “Fold of Stimulation GR/PPAR” value (GR/PPAR [2]; 50 μM) was 2.87 ± 0.2 fold, the “Fold of Stimulation GR/PPAR” value (GR/PPAR [2]; 300 μM) was 14.69 ± 0.06 fold and the “Fold of stimulation GR/NUC” value (GR/NUC; 150 μM) was 3.42 ± 0.28 fold.

In the case of `CN1CCc2cc(Cl)c(O)cc2C(c2ccccc2)C1` (centres unmarked) [SCH-23390, 8-chloro-2,3,4,5-tetrahydro-3-methyl-5-phenyl-1H-3-benzazepin-7-ol hemimaleate], the “Fold of Stimulation GR/NER, Dopamine (50 μM)” value (from here on “Fold … (50 μM)”) (GR/NER; SCH-23390 0.1 μM with dopamine 50 μM) is reported as 0.59 ± 0.06 fold, the “Fold of Stimulation GR/NER, Control” value (GR/NER; SCH-23390 0.1 μM) is reported as 1.32 ± 0.15 fold and the “Fold … (50 μM)” value (GR/NER; SCH-23390 1.0 μM with dopamine 50 μM) is reported as 0.55 ± 0.09 fold. The “Fold of Stimulation GR/NER, Control” value (GR/NER; SCH-23390 1.0 μM) was 1.22 ± 0.11 fold, the “Fold … (50 μM)” value (GR/NER; SCH-23390 10.0 μM with dopamine 50 μM) was 0.83 ± 0.12 fold and the “Fold of Stimulation GR/NER, Control” value (GR/NER; SCH-23390 10.0 μM) was 1.64 ± 0.38 fold. The “Fold … (50 μM)” value (GR/NER; SCH-23390 100 μM with dopamine 50 μM) was 2.61 ± 0.86 fold, the “Fold of Stimulation GR/NER, Control” value (GR/NER; SCH-23390 100 μM) was 2.38 ± 0.19 fold and the “Catalepsy Duration” value [3] was 3.1 ± 1.3 s.

With `CCCCCCCCCCCCCCOc1ccc(C(=O)O)o1` [TOFA, 5-(tetradecyloxy)-2-furan carboxylic acid] the “Fold of Stimulation GR/PPAR” value (GR/PPAR [2]; 2 μM) was 2.89 ± 0.13 fold, the “Fold of Stimulation GR/PPAR” value (GR/PPAR [2]; 10 μM) was 4.08 ± 0.10 fold and the “Fold of Stimulation GR/PPAR” value (GR/PPAR [2]; 20 μM) was 5.75 ± 0.14 fold. The “Fold of Stimulation GR/PPAR” value (GR/PPAR [1]; 0.1 μM, Table 2, 1440 min) was 1.04 ± 0.14 fold, the “Fold of Stimulation GR/PPAR” value (GR/PPAR [1]; 1.0 μM, Table 2) was 2.38 ± 0.16 fold and the “Fold of Stimulation GR/PPAR” value (GR/PPAR [1]; 10.0 μM, Table 2, 1440 min) was 4.43 ± 0.23 fold. For the same compound, the “Fold of Stimulation GR/PPAR” value (GR/PPAR [1]; 100 μM, Table 2, 1440 min) was 4.10 ± 0.52 fold, the “effect of TOFA pretreatment on Haloperidol-induced catalepsy” value [4] was “did not significantly affect; also recorded: unaffected” and the “stimulation of luciferase expression, reporter under control of the promoter of SV40” value (promoter of SV40) was “did not stimulate”. The “Fold of stimulation GR/NUC” value (GR/NUC; 2 μM) was 1.95 ± 0.14 fold, the “Fold of stimulation GR/NUC” value (GR/NUC; 10 μM) was 2.85 ± 0.20 fold and the “Fold of stimulation GR/NUC” value (GR/NUC; 50 μM) was 3.19 ± 0.20 fold. The “stimulation of luciferase expression, MMTV-luciferase reporter gene only” value [5] was “did not stimulate” and the neurite outgrowth (PC12 cells) was “did not induce neurite outgrowth”.
